pIC50: −log10 of the molar value.
Tests used:
hSortilin = molecular target: T1, hSortilin (Homo sapiens, UniProt Q99523); assay: Neurotensin (NTS) scintillation proximity assay (SPA): displacement of 3H-neurotensin binding to hSortilin; conditions: for inhibition at 50 µM: read-out: % inhibition at 50 μM, NTS SPA, compound at 50 μM (footnote *); for pIC50: 150 nM 6his-Sortilin, 5 nM [3H]-Neurotensin, average of at least 4 determinations
T1 sequence (Q99523 78-831): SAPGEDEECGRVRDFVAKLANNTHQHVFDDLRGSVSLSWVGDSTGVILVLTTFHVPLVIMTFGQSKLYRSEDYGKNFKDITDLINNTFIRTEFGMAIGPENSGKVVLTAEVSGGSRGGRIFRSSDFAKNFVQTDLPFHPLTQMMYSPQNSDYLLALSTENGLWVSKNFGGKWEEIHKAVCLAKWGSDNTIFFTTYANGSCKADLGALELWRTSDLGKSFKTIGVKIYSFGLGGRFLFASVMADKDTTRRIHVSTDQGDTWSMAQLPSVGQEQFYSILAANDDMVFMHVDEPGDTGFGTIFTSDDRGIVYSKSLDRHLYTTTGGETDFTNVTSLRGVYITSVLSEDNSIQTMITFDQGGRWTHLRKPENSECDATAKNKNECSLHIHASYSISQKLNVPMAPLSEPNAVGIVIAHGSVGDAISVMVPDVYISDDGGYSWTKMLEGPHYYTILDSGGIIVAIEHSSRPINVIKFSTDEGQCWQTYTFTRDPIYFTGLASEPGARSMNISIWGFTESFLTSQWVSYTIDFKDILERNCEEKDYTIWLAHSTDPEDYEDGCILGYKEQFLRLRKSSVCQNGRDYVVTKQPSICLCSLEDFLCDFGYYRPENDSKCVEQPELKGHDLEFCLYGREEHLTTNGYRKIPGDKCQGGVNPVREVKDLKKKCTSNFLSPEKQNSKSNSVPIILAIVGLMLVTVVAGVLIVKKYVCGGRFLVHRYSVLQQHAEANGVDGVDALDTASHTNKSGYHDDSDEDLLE

[1] = system: light sensitive cells of the retina in mice; assay: Diabetic mouse model: flash electroretinography (fERG) before and 8 weeks after STZ induction of diabetes; format: in vivo
Method: Flash electroretinography (fERG) was used to measure the electrical response of the light sensitive cells of the retina in mice both prior to streptozocin (STZ) induction of diabetes (baseline) and 8 weeks after induction. Mice were exposed to increasing intensities of light flashes and the resulting electrical responses, measured in amplitude, were recorded. The skilled person will recognise that a cell with a higher measured amplitude is indicative of a healthy cell whilst cells with lower amplitudes is indicative of a damaged cell which is no longer functioning optimally. In the experimental group, the mice were administered with a polyclonal anti-sortilin antibody (2 ul of a 1 μg/μl solution in Dulbecco's Phosphate buffered saline) by intravitrial administration whereas in the control group the mice were administered with the vehicle only (Dulbecco's Phosphate buffered saline). All other variables, such as food intake, diet, exercise levels and exposure to environmental enrichment were kept the same between the two groups.

Compound | inhibition at 50 µM (hSortilin) [%] | further results
Cc1cccc(NC(=O)c2ccc(-c3ccccc3)cc2C(=O)O)n1 [Example 10, 4-[(6-methylpyridin-2-yl)carbamoyl]-[1,1′-biphenyl]-3-carboxylic acid] | 2 | –
Cc1cccc(NC(=O)c2ccccc2C(=O)O)n1 [Example 3, 2-[(6-methylpyridin-2-yl)carbamoyl]benzoic acid] | 15 | –
O=C(O)c1cc(C(F)(F)F)ccc1C(=O)Nc1ccc2c(n1)CCCC2 [Example 30, 2-[(5,6,7,8-tetrahydroquinolin-2-yl)carbamoyl]-5-(trifluoromethyl)benzoic acid] | – | pIC50 (hSortilin): 7.00
Cc1cccc(NC(=O)c2ccc([N+](=O)[O-])cc2C(=O)O)n1 [Example 9, 2-[(6-methylpyridin-2-yl)carbamoyl]-5-nitrobenzoic acid] | – | pIC50 (hSortilin): 5.77
Cc1cccc(NC(=O)c2cccc(C)c2C(=O)O)n1 [Example 4, 2-methyl-6-[(6-methylpyridin-2-yl)carbamoyl]benzoic acid] | 5 | –
Cc1cccc(NC(=O)c2ccc(Br)cc2C(=O)O)n1 [Example 1, 5-bromo-2-[(6-methylpyridin-2-yl)carbamoyl]benzoic acid] | – | pIC50 (hSortilin): 6.15
Cc1cccc(NC(=O)c2ccc(Br)cc2C(=O)O)c1 [Example 20, 5-bromo-2-[(3-methylphenyl)carbamoyl]benzoic acid] | – | pIC50 (hSortilin): 5.28
Cc1cccc(NC(=O)c2cc(Cl)ccc2C(=O)O)n1 [Example 11, 4-chloro-2-[(6-methylpyridin-2-yl)carbamoyl]benzoic acid] | 69 | –
Cc1cccc(NC(=O)c2ccc(C(F)(F)F)cc2C(=O)O)n1 [Example 8, 2-[(6-methylpyridin-2-yl)carbamoyl]-5-(trifluoromethyl)benzoic acid] | – | reduction in the fERG response (a wave and b wave) 8 weeks after induction compared to the baseline ([1]; intravitreal 2 μl of a 1 μg/μl solution, versus vehicle control group): smaller for the experimental group compared to the control group; protective effect on retinal cells compared with the polyclonal antibody of the first study ([1]; intravitreal, fERG 8 weeks after induction): greater than that of the polyclonal antibody
Cc1cccc(NC(=O)c2cc(Br)ccc2C(=O)O)n1 [Example 2, 4-bromo-2-[(6-methylpyridin-2-yl)carbamoyl]benzoic acid] | – | pIC50 (hSortilin): 4.92
Cc1cccc(NC(=O)c2c(C)cccc2C(=O)O)n1 [Example 16, 3-methyl-2-[(6-methylpyridin-2-yl)carbamoyl]benzoic acid] | 43 | –
CCC(C)NC(=O)c1ccc(Br)cc1C(=O)O (stereo not drawn) [Example 17, 5-bromo-2-[(butan-2-yl)carbamoyl]benzoic acid] | 30 | –
Cc1ccc(C(=O)O)c(C(=O)Nc2cccc(C)n2)c1 [Example 12, 4-methyl-2-[(6-methylpyridin-2-yl)carbamoyl]benzoic acid] | 57 | –

The next lines start with results.

inhibition at 50 µM (hSortilin) [%] | Compound | further results
64 | Cc1cccnc1NC(=O)c1ccc(Br)cc1C(=O)O [Example 24, 5-bromo-2-[(3-methylpyridin-2-yl)carbamoyl]benzoic acid] | –
70 | Cc1ccc(NC(=O)c2ccc(Br)cc2C(=O)O)cn1 [Example 25, 5-bromo-2-[(6-methylpyridin-3-yl)carbamoyl]benzoic acid] | –
69 | O=C(O)c1cc(Br)ccc1C(=O)Nc1ccccc1 [Example 19, 5-bromo-2-(phenylcarbamoyl)benzoic acid] | –
35 | CC(C)NC(=O)c1ccc(Br)cc1C(=O)O [Example 18, 5-bromo-2-[(propan-2-yl)carbamoyl]benzoic acid] | –

Reference: patent US20230144901A1, “SORTILIN ANTAGONISTS FOR USE IN THE TREATMENT OF DIABETIC RETINOPATHY” (Insusense ApS, priority 2020, published 2023)
